In patent US10329518B2, “Anionic surfactants” (Novus International Inc., priority 2015, dated 2019):
Read-outs that look alike come from different tables or passages of the source.

Key:
[1] = Surface tension by Wilhelmy plate tensiometer; CMC from break point of surface tension vs. log C; type: physicochemical; conditions: room temperature
Description: The solubility of the surfactants in water was assessed visually at room temperature. The mixture at each concentration was examined after at least 10 min of mild shaking and ultrasonic bath agitation to see if the surfactant completely dissolved. […] Surface tension was determined with a Wilhelmy Plate tensiometer (Cahn DCA-322) at room temperature. Glass slides manufactured by Corning with a width of 22 mm and thickness of 0.1 mm were used as probes. The motor speed was set to be 100 μm/sec. The CMC was determined from the break point of Υvs. log C diagram with a custom Microsoft Visual Basic program.

[2] = literature value (footnotes a, c); cited from earlier work
[3] = Water solubility assessed visually at room temperature; type: physicochemical; conditions: in water, visual assessment
Description: Dowex MAC-3 resin (proton form) was swollen and neutralized with excess NaOH/water solution, and then assembled into a column. After the resin was balanced with 2 column volumes of 30 vol % water in ethanol, 1 column volume of a 0.1 g/mL acid in 30 vol % water in ethanol solution was loaded and incubated in the column for 10 min. Subsequently, the resin was rinsed with 2 column volumes of 30 vol % water in ethanol, and the eluent was collected. The pH of the 1 wt % solutions/suspensions of the solids increased from 4 to 8 after passing through the column. The solvent was then evaporated under vacuum at mild heat (40° C.) to provide the sodium carboxylate salts. The sodium salts were fully soluble in water (deionized with 18MΩ resistivity), while the starting carboxylic acids were insoluble. The solubility of the surfactants in water was assessed visually at room temperature. The mixture at each concentration was examined after at least 10 min of mild shaking and ultrasonic bath agitation to see if the surfactant completely dissolved. […] Surface tension was determined with a Wilhelmy Plate tensiometer (Cahn DCA-322) at room temperature. Glass slides manufactured by Corning with a width of 22 mm and thickness of 0.1 mm were used as probes. The motor speed was set to be 100 μm/sec. The CMC was determined from the break point of Υvs. log C diagram with a custom Microsoft Visual Basic program.

[4] = Krafft temperature determination; type: physicochemical; conditions: within 48 hours
Description: […] the solution to 4° C. and then raising the temperature by 1° C. steps and visually inspecting its phase behavior after the solution reached thermal equilibrium. For hardness tolerance, a known amount of calcium chloride was added to the solution prior to cooling to 4° C.

[5] = Hardness (calcium chloride) tolerance; type: physicochemical; conditions: for CaCl2 Tolerance / Hardness Tolerance: CaCl2 added, cooled to 4° C., heated to 25° C., visual
Description: The Krafft temperature of the surfactant with the concentration at the room temperature CMC was determined by cooling the solution to 4° C. and then raising the temperature by 1° C. steps and visually inspecting its phase behavior after the solution reached thermal equilibrium. For hardness tolerance, a known amount of calcium chloride was added to the solution prior to cooling to 4° C.

[6] = Draves wetting test (ASTM D2281-68); type: physicochemical
Description: The Draves wetting test was performed according to ASTM […]-68. 500 mL of surfactant solution was poured into a 500 mL graduated cylinder (38 cm in height), and a 5.0 g standard skein hooked with a lead anchor was dropped into the solution. The skein floats in the solution initially and sinks when wetted, and the time taken was recorded as the time of wetting.

[7] = cited from earlier work; for CMC/C20: literature value (footnotes b, d)
[8] = literature value (footnote c); cited from earlier work
[9] = literature value (footnotes a, b); cited from earlier work
[10] = Ross-Miles foam test (ASTM D1173-07); type: physicochemical; conditions: 1 wt % solution
Description: The Ross-Miles foam test was performed according to the test protocol described in ASTM D1173-07. […] 50 mL of each surfactant solution (1 wt %) was carefully poured into the 1 meter glass column, without creating any foam, which is called the receiver. A 200 mL pipette with the surfactant solution is placed 90 cm above the receiver and the solution is allowed to drop into the foam receiver. The height of the foam produced is measured immediately and after 5 minutes.

Work on “sodium dodecylbenzene sulfonate [SDBS, reference compound]” yielded a CMC [1] of 3.1 mM, a CMC/C20 [1] of 5.30 and a pC20 [1] of 3.24. For the same molecule, the “ΥCMC (surface tension at CMC)” value [1] was 34 mN/m and the “Water Solubility” value [2] was 575^a mM.
In the case of `CCCCCCCCCCCC(=O)OC(CC[S+](C)[O-])C(=O)[O-].[Na+]` (centres unmarked) [C12ESOCOONa], the “Water Solubility” value [3] is reported as >1000^ mM, the CMC [1] is reported as 1.7 mM and the CMC/C20 [1] is reported as 3.15. The pC20 [1] was 3.27, the “ΥCMC (surface tension at CMC)” value [1] was 40 mN/m and the “Precipitation of 1 wt % solution in 4° C. water bath” value (shortened to “Precipitation of 1 wt % solution”) [4] was “did not show precipitation”. For the same molecule, the “CaCl2 Tolerance” value [5] was 5000 µM, the “Hardness Tolerance” value [5] was 500 ppm as CaCO3 and the Hardness tolerance (of CaCl2) ([5]; text of b163) was 5000 µM. For the same molecule, the “Hardness tolerance relative to the unoxidized form” value ([5]; versus C12ESCOONa) was 50 times.
For `CCCCCCCCCCCCOS(=O)(=O)[O-].[Na+]` [SDS, sodium dodecyl sulfate], the “Draves wetting time of 0.1 wt % solution” value [6] is listed as 11 s, the CMC ([7]; literature value (footnote d)) is listed as 12.4^d mM and the pC20 ([7]; literature value (footnote d)) is listed as 2.36^d. The “ΥCMC (surface tension at CMC)” value ([7]; literature value (footnote d)) was 40^d mN/m, the CMC/C20 [7] was 2.6^d and the “CaCl2 Tolerance” value [8] was 40^c μM. For the same molecule, the “Hardness Tolerance” value [8] was 4^c ppm as CaCO3.
`CCCCCCCCCCCC(=O)[O-].[Na+]` [NaL, sodium laurate, reference compound] gave a solubility ([3]; thermodynamic from solid) of 90 mM, a CMC [1] of 19.1 mM and a pC20 [1] of 3.32. The “ΥCMC (surface tension at CMC)” value [1] was 30 mN/m, the “CaCl2 Tolerance” value [5] was 0.5 µM and the “Hardness Tolerance” value [5] was 0.05 ppm as CaCO3. The “Draves wetting time of 0.1 wt % solution” value [6] was 52 s, the CMC/C20 [7] was 38.5^b and the “Krafft Point” value [9] was 13^a ° C.
In the case of `CCCCCCCCCCCC(=O)OC(CCSC)C(=O)[O-].[Na+]` (centres unmarked) [C12ESCOONa], the “Water Solubility” value [3] is reported as 282 mM, the CMC [1] is reported as 1.0 mM and the CMC/C20 [1] is reported as 5.55. The pC20 [1] was 3.84, the “ΥCMC (surface tension at CMC)” value [1] was 35 mN/m and the “Precipitation of 1 wt % solution” value [4] was “did not show precipitation”. The “CaCl2 Tolerance” value [5] was 100 µM, the “Hardness Tolerance” value [5] was 10 ppm as CaCO3 and the “Calcium tolerance relative to the linear carboxylate (NaL)” value ([5]; versus NaL) was “approximately 2.5 orders of magnitude”. For the same molecule, the “Calcium tolerance relative to the linear sulfate SDS” value ([5]; versus SDS) was “about half an order of magnitude better”, the “Draves wetting time of 0.1 wt % solution” value [6] was 11 s and the “Draves wetting performance compared with references” value ([6]; 0.1 wt % solutions) was “outperformed NaL in wetting time with a comparable performance to SDS”. The Foam dissipation ([10]; foam height immediately and after 5 minutes) was “dissipates much faster” and the Foam height ([10]; versus SDS, SDBS, AES) was “comparable to the reference anionic surfactants”.
With `CCCCCCCCCCCCCCCC(=O)OC(CC[S+](C)[O-])C(=O)[O-].[Na+]` (centres unmarked) [C16ESOCOONa] the “Water Solubility” value [3] was 117 mM, the CMC [1] was 0.54 mM and the CMC/C20 [1] was 4.56. For the same molecule, the pC20 [1] was 4.07, the “ΥCMC (surface tension at CMC)” value [1] was 42 mN/m and the “Precipitation of 1 wt % solution” value [4] was “did not show precipitation”. For the same molecule, the “CaCl2 Tolerance” value [5] was 100 µM and the “Hardness Tolerance” value [5] was 10 ppm as CaCO3.
